# Structures can show the parent of a compound that is named as a salt.
# How the values were obtained:
# [1] = target: T1, LXRα (Homo sapiens, UniProt Q13133); experiment: LXR coactivator recruitment (Alphascreen); format: biochemical; conditions: Table 6
# T1 sequence (Q13133 1-447): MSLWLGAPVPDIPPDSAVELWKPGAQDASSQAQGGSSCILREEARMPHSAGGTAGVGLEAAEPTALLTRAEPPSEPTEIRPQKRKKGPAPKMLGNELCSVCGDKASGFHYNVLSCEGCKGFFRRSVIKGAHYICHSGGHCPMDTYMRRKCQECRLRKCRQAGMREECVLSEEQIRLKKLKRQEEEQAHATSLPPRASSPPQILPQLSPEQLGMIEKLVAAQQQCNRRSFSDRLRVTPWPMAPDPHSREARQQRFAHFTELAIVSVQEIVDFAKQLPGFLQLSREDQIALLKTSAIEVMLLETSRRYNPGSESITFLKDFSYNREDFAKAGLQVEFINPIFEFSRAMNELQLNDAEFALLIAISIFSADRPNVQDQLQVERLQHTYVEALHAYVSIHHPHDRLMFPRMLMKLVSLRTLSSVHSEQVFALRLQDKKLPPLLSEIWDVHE
# [2] = target: T2, PXR (Homo sapiens, UniProt O75469); experiment: PXR ligands competition assay (binding assay); conditions: Table 6
# T2 sequence (O75469 1-434): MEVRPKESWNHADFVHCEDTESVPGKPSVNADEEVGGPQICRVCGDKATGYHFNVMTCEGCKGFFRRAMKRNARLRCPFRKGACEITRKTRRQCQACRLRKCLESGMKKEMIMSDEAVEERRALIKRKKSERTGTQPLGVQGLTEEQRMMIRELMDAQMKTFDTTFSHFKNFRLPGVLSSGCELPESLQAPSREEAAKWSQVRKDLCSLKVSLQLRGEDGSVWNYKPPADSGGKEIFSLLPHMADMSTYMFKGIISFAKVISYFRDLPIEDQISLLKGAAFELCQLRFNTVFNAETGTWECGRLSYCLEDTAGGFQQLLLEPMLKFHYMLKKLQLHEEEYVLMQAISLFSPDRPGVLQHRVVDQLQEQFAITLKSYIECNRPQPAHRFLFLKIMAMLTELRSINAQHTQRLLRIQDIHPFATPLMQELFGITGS
# [3] = target: T3, CAR (Homo sapiens, UniProt Q14994); experiment: CAR coactivator recruitment (Lanthascreen); format: biochemical; conditions: Table 6; coactivator recruitment (Lanthascreen)
# T3 construct: purchased Invitrogen
# T3 sequence (Q14994 109-352 limits assumed): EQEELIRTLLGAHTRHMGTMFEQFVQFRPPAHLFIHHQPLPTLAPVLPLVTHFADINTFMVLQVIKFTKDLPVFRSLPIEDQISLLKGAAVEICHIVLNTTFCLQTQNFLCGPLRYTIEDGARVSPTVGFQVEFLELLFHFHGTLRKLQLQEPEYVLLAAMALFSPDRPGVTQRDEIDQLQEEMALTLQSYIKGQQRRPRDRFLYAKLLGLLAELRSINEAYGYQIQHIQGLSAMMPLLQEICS
# [4] = tested on: intestinal bacteria; experiment: In vitro metabolic stability in human stools culture; format: in vitro ADME
# Procedure: Homogenized fresh human stools (500 mg) were transferred into sterile vials to which 5 mL of sterilized chopped meat-glucose medium (Scott Lab., Fiskville, R.I.) was added. BAs were then added at a final concentration of 0.05 mM. Vials were incubated at 37° C.; then, at 0, 1, 2, 4, 8 and 24 h after the addition of the BA, the reaction was stopped with 150 μL of 30% KOH. The samples were centrifuged at 3500 rpm for 10 min; from the supernatant the BA were isolated by C-18 solid-phase extraction and analyzed by TLC and HPLC-ES-MS/MS.
# Thin-layer chromatography (TLC), utilizing silica gel 0.25 mm thickness plates (Merck, Darmstat, Germany), was employed as the first screening test. The solvent system used for the separation of conjugated BA was composed of propionic acid/isoamyl acetate/water/N-propanol (3:4:1:2, v/v/v/v; solvent I), and that of the unconjugated BA was acetic acid/carbon tetrachloride/isopropyl ether/isoamyl acetate/water/N-propanol/benzene (1:4:6:8:2:2, v/v/v/v/v/v; solvent II).
# [5] = in vitro; conditions: human
# [6] = target: T4, hTGR5 (Homo sapiens, UniProt Q8TDU6); experiment: cell-based; design: Human intestinal cell lines (NCI-H716) were plated in 96-well plates; endogenous in cells; conditions: Table 1; CRE-Luc reporter, HEK293T; read-out: Transactivation Assay hTGR5 EC50
# T4 sequence (Q8TDU6 1-330): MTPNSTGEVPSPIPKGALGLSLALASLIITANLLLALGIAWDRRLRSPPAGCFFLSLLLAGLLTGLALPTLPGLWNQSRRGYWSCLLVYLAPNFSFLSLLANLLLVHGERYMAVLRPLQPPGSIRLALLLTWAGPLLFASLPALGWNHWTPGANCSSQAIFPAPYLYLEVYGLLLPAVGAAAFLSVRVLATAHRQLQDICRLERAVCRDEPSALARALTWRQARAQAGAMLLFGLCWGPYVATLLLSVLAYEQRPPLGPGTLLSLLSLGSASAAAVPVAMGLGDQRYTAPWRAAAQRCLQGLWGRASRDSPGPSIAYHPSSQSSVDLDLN
# Procedure: HEPG2 and HEK293T cells were cultured in E-MEM and DMEM respectively, either supplemented with 1% penicillin/streptomycin, 1% L-glutamine and 10% fetal bovine serum. […] Cells were grown at 37° C. in 5% CO2. All the transfections were made using 5:2 Fugene HD Trasfection reagent (μl) to DNA (μg) respectively (Roche). […] Transient transfections were performed using 100 ng of reporter vector pGL4.29[luc2P/CRE/Hygro] […] The pGEM vector was added to normalize the amounts of DNA transfected in each assay (2 μg). […] The cells were then lysed by adding 75 μl of Dual-Glo Luciferase Reagent (Promega) to 75 μl of medium containing cells/well. Renilla luciferase activity was measured by adding volume:volume of Dual-Glo Stop & Glo reagent and original culture medium. Luciferase activities were expressed as ratio between luciferase unit and renilla luciferase unit. Each data point is the average of triplicate assays. Each experiment was repeated at least three times.
# After subtracting the average value of the basal (vehicle-treated) condition, values were applied to EC50 and/or efficacy determinations. Calculation of average EC50 and comparison of the EC50 between different compounds were done after transformation to logarithms.
# [7] = target: T4, hTGR5; experiment: FRET-cAMP on TGR5 overexpressing Hek293 cells; format: cell-based; design: Human intestinal cell lines (NCI-H716) were plated in 96-well plates; endogenous in cells
# [8] = target: bovine serum albumin (Bos taurus, UniProt P02769); experiment: Albumin binding by equilibrium dialysis; format: in vitro ADME; design: 5% bovine serum albumin-saline solution (pH 7.2); from tissue; host or cells: bovine serum (by the name of the product); conditions: 100 μM BA in 5% bovine serum albumin-saline, pH 7.2
# Procedure: The extent of albumin binding was evaluated by equilibrium dialysis at a fixed BA-albumin ratio. Each BA was dissolved at a concentration of 100 μM in 5% bovine serum albumin-saline solution (pH 7.2) and left to stand for 24 h at 25° C. Two milliliters of this solution was dialyzed in cellulose sacs having a molecular weight cut-off of 12,000-14,000 Dalton against 25 ml of saline solution. The system was equilibrated by gently shaking for 72 h at 25° C. BA concentrations of the dialyzed solution (corresponding to the free unbound fraction) and of the starting solution were determined with HPLC-ESI-MS/MS in the same conditions of the previous analysis.
# The percentage of albumin binding was calculated from the initial BA concentration and from the unbound concentration in the dialyzed fraction.
# bovine serum albumin, sequence (P02769 25-607): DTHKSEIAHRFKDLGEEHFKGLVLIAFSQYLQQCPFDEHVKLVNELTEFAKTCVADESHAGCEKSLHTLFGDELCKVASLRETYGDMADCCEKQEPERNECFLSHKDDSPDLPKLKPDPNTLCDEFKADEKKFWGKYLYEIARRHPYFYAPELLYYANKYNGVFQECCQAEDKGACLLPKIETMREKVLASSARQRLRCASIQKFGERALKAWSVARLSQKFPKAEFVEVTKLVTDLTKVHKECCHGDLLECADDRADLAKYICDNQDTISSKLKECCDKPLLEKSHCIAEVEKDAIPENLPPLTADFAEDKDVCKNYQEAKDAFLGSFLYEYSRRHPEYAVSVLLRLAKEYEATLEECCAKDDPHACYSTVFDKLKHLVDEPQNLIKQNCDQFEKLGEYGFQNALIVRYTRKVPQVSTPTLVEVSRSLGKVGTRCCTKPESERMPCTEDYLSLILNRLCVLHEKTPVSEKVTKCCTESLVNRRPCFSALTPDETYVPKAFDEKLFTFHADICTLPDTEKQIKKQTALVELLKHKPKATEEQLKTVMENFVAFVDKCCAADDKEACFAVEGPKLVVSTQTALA
smiles,measurement,setting,value
"CC[C@H]1[C@@H](O)[C@@H]2[C@H](CC[C@]3(C)[C@@H]([C@H](C)CCC(=O)O)[C@@H](O)C[C@@H]23)[C@@]2(C)CC[C@@H](O)C[C@@H]12 [Compound 10, 3α,7α,16β-trihydroxy-6α-ethyl-5β-cholan-24-oic acid sodium salt]",LXRα Activation EC50,[1],No activity
same,IC50,[2],64 µM
same,CAR Activation EC50,[3],No activity
same,Compound recovered unmodified in human stool cultures,"[4]; after 24 hour incubation, 0.05 mM, 37° C.",more than 85%
same,Side chain stability to intestinal bacteria,[4]; human stool cultures,very stable for side chain metabolism
same,EC50 at 4 h,[5],> 1000 µM
same,EC50,[6],0.04 µM
same,EC50,[7],0.2 µM
same,Albumin Binding,[8],83%

# Reference: US8999964B2, “TGR5 modulators and methods of use thereof” (Intercept Pharmaceuticals, Inc., priority 2008, dated 2015)
